Values of other authors, collected in patent US20120178114A1, “METHODS AND DEVICES FOR DETECTING THROMBIN GENERATION” (SUBC, INC., priority 2007, published 2012).

Biological target: thrombin (Homo sapiens, UniProt P00734)
Conditions: BAEE as thrombin substrate

Km: 100 µM
kcat: 50 s⁻¹
SMILES: CCOC(=O)[C@H](CCCNC(=N)N)NC(=O)c1ccccc1 [BAEE, benzoylarginine ethyl ester]
